Results reported in patent US10358437B2, “Therapeutic compounds and uses thereof” (GENENTECH, INC., priority 2014, dated 2019).
Counter-ions that a name gives are not always drawn.

Each compound was assayed against T1, PCAF bromodomain (Homo sapiens, UniProt Q92831) (assay: PCAF AlphaLisa binding assay). Conditions: His/Flag tagged PCAF719-832 bromodomain 225 nM, biotinylated small molecule ligand 6 nM.
T1 construct: Flag; made in house
T1 sequence (Q92831 719-832): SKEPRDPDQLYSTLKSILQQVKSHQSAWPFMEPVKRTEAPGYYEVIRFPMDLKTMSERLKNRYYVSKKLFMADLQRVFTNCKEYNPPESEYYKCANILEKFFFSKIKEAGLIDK
Protocol: IC50 Measurements for Inhibitors Using PCAF AlphaLisa Binding Assay
His/Flag epitope tagged PCAF719-832 bromodomain was cloned, expressed and purified to homogeneity in-house. PCAF bromodomain binding and inhibition of the compounds disclosed herein was assessed by monitoring the engagement of biotinylated small molecule ligand (known to bind to the PCAF bromodomain) with the target using the AlphaLisa technology (Perkin-Elmer). Specifically, in a 384 well ProxiPlate PCAF bromodomain (225 nM final) was combined with the biotinylated small molecule ligand (6 nM final) in 50 mM HEPES (pH 7.5), 75 mM NaCl, 1 mM TCEP, 0.01% (w/v) BSA, and 0.008% (w/v) Brij-35 either in the presence of DMSO (final 0.2% DMSO) or compound dilution series in DMSO. After 15 minute incubation at room temperature AlphaLisa streptavidin acceptor beads and AlphaLisa anti-histidine donor beads were added to a final concentration of 12.5 μg/mL each.
PCAF IC50 values for the Examples 1-22 were determined using the general procedure described above.

Structure (SMILES)	IC50
CN1c2ccccc2CCC1CNc1nn(C)c(=O)n(C)c1=O (racemic) [Example 2, 2,4-dimethyl-6-(((1-methyl-1,2,3,4-tetrahydroquinolin-2-yl)methyl)amino)-1,2,4-triazine-3,5(2H,4H)-dione]	> 20000 nM
CN1CCCC1CNc1nn(C)c(=O)n(C)c1=O (racemic) [Example 3, 2,4-dimethyl-6-(((1-methylpyrrolidin-2-yl)methyl)amino)-1,2,4-triazine-3,5(2H,4H)-dione]	2500 nM
CN(C)C(CNc1nn(C)c(=O)n(C)c1=O)c1ccc(F)cc1 (racemic) [Example 4, 6-((2-(dimethylamino)-2-(4-fluorophenyl)ethyl)amino)-2,4-dimethyl-1,2,4-triazine-3,5(2H,4H)-dione]	280 nM
COc1ccc(C(CNc2nn(C)c(=O)n(C)c2=O)N(C)C)cc1 (racemic) [Example 6, 6-((2-(dimethylamino)-2-(4-methoxyphenyl)ethyl)amino)-2,4-dimethyl-1,2,4-triazine-3,5(2H,4H)-dione]	150 nM
CN1Cc2ccccc2CC1CNc1nn(C)c(=O)n(C)c1=O (racemic) [Example 8, 2,4-dimethyl-6-[(2-methyl-3,4-dihydro-1H-isoquinolin-3-yl)methylamino]-1,2,4-triazine-3,5-dione]	380 nM
CN(C)C(CNc1nn(C)c(=O)n(C)c1=O)c1cccc(Cl)c1 (racemic) [Example 10, 6-((2-(3-chlorophenyl)-2-(dimethylamino)ethyl)amino)-2,4-dimethyl-1,2,4-triazine-3,5(2H,4H)-dione]	430 nM
CN(C)C(CNc1nn(C)c(=O)n(C)c1=O)Cc1ccccc1 (racemic) [Example 11, 6-((2-(dimethylamino)-3-phenylpropyl)amino)-2,4-dimethyl-1,2,4-triazine-3,5(2H,4H)-dione]	1400 nM
CN(C)C1CCCN(c2nn(C)c(=O)n(C)c2=O)C1 (racemic) [Example 12, 6-(3-(dimethylamino)piperidin-1-yl)-2,4-dimethyl-1,2,4-triazine-3,5(2H,4H)-dione]	> 20000 nM
Cn1nc(N2CCNC(c3ccccc3)C2)c(=O)n(C)c1=O (racemic) [Example 13, 2,4-dimethyl-6-(3-phenylpiperazin-1-yl)-1,2,4-triazine-3,5(2H,4H)-dione]	> 20000 nM
CN(C)C(CNc1nn(C)c(=O)n(C)c1=O)c1ccc(C(F)(F)F)cc1 (racemic) [Example 14, 6-((2-(dimethylamino)-2-(4-(trifluoromethyl)phenyl)ethyl)amino)-2,4-dimethyl-1,2,4-triazine-3,5(2H,4H)-dione]	250 nM
CN(C)C(C)(CNc1nn(C)c(=O)n(C)c1=O)c1ccccc1 (racemic) [Example 15, 6-((2-(dimethylamino)-2-phenylpropyl)amino)-2,4-dimethyl-1,2,4-triazine-3,5(2H,4H)-dione]	480 nM
Cn1nc(NCC(c2ccccc2)N2CCCC2)c(=O)n(C)c1=O (racemic) [Example 16, 2,4-dimethyl-6-((2-phenyl-2-(pyrrolidin-1-yl)ethyl)amino)-1,2,4-triazine-3,5(2H,4H)-dione]	8100 nM
CN(C)[C@H]1CCCC[C@H]1Nc1nn(C)c(=O)n(C)c1=O (racemic) [Example 19, 6-((2-(dimethylamino)cyclohexyl)amino)-2,4-dimethyl-1,2,4-triazine-3,5(2H,4H)-dione hydrochloride]	1100 nM
CN(C)[C@@H]1CCCC[C@H]1Nc1nn(C)c(=O)n(C)c1=O (racemic) [Example 20, 6-(((1R,2R)-2-(dimethylamino)cyclohexyl)amino)-2,4-dimethyl-1,2,4-triazine-3,5(2H,4H)-dione]	230 nM
CN1CCc2ccccc2C1CNc1nn(C)c(=O)n(C)c1=O (racemic) [Example 21, 2,4-dimethyl-6-(((2-methyl-1,2,3,4-tetrahydroisoquinolin-1-yl)methyl)amino)-1,2,4-triazine-3,5(2H,4H)-dione]	1200 nM
CCn1nc(NCC(c2ccccc2)N(C)C)c(=O)n(CC)c1=O (racemic) [Example 22, 6-((2-(dimethylamino)-2-phenylethyl)amino)-2,4-diethyl-1,2,4-triazine-3,5(2H,4H)-dione]	12000 nM
C[C@H](Nc1nn(C)c(=O)n(C)c1=O)[C@H](c1ccccc1)N(C)C (single isomer, unassigned) [Example 17]	120 nM
C[C@H](Nc1nn(C)c(=O)n(C)c1=O)[C@H](c1ccc(S(=O)(=O)c2ccccc2)cc1)N(C)C (single isomer, unassigned) [Example 18]	70 nM
CN(CCNc1nn(C)c(=O)n(C)c1=O)CC(F)(F)F [Example 1, 2,4-dimethyl-6-((2-(methyl(2,2,2-trifluoroethyl)amino)ethyl)amino)-1,2,4-triazine-3,5(2H,4H)-dione]	> 20000 nM
Cn1nc(NCCNc2ccccc2)c(=O)n(C)c1=O [Example 5, 2,4-dimethyl-6-((2-(phenylamino)ethyl)amino)-1,2,4-triazine-3,5(2H,4H)-dione]	65000 nM
CN(C)CCN(C)c1nn(C)c(=O)n(C)c1=O [Example 7, 6-((2-(dimethylamino)ethyl)(methyl)amino)-2,4-dimethyl-1,2,4-triazine-3,5(2H,4H)-dione (trifluoroacetic acid salt)]	37000 nM
CN(CCNc1nn(C)c(=O)n(C)c1=O)Cc1ccccc1 [Example 9, 6-((2-(benzyl(methyl)amino)ethyl)amino)-2,4-dimethyl-1,2,4-triazine-3,5(2H,4H)-dione]	7500 nM
